Common to all, as to assay: relative viability (nuclei count vs DMSO), 5 days (fraction); higher = more cells survive
Compound in assay [1]: C1CCC(CC1)N(CCNCCC2=C3C(=C(C=C2)O)NC(=O)CO3)C(=O)CCNCCC4=CC(=C(C=C4)Cl)Cl [AZ505] + Nc1nc2[nH]cc(CCc3ccc(C(=O)N[C@@H](CCC(=O)O)C(=O)O)cc3)c2c(=O)[nH]1 [Pemetrexed] (partner 0.2 µM)
In short, it runs like this: (§1)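 Lung cancer cell lines in 1536-well plates got either a single drug or a fixed anchor-drug dose together with five library-drug doses (not always all listed) in √10 steps, by pin tool, on the day after seeding. Nuclei were counted after 5 days, and relative viability is the treated-to-vehicle ratio of nuclei counts. Values are medians of duplicate plates.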

Compound in assay [2]: Cn1c(=O)n(-c2ccc(C(C)(C)C#N)cc2)c2c3cc(-c4cnc5ccccc5c4)ccc3ncc21 [Dactolisib] + Nc1ncn([C@H]2C[C@H](O)[C@@H](CO)O2)c(=O)n1 [Decitabine] (partner 2 µM)
An outline of the steps:
as §1

Compound in assay [3]: Cn1c(=O)n(-c2ccc(C(C)(C)C#N)cc2)c2c3cc(-c4cnc5ccccc5c4)ccc3ncc21 [Dactolisib] + CC(=O)c1c(C)c2cnc(Nc3ccc(N4CCNCC4)cn3)nc2n(C2CCCC2)c1=O [Palbociclib] (partner 0.5 µM)
In short, it runs like this:
as §1

Compound in assay [4]: C1CCC(CC1)N(CCNCCC2=C3C(=C(C=C2)O)NC(=O)CO3)C(=O)CCNCCC4=CC(=C(C=C4)Cl)Cl [AZ505] + Nc1ncn([C@H]2C[C@H](O)[C@@H](CO)O2)c(=O)n1 [Decitabine] (partner 2 µM)
An outline of the steps:
as §1

As to UMC-11, the relative viability in assay [1] (first compound 0.08 µM) came to 0.757; in assay [1] (first compound 0.253 µM), 0.714; in assay [1] (first compound 0.8 µM) it was 0.705; in assay [1] (first compound 2.53 µM) it was 0.901; in assay [1] (first compound 8 µM), 0.894; in assay [2] (first compound 0.002 µM), 0.577. Also, the relative viability in assay [2] (first compound 0.006325 µM) came to 0.601; in assay [2] (first compound 0.02 µM) it was 0.514; in assay [2] (first compound 0.06325 µM), 0.366; in assay [2] (first compound 0.2 µM), 0.346; in assay [3] (first compound 0.002 µM), 0.331; in assay [3] (first compound 0.006325 µM), 0.311. The relative viability in assay [3] (first compound 0.02 µM) was determined as 0.344; in assay [3] (first compound 0.06325 µM), 0.318; in assay [3] (first compound 0.2 µM), 0.305; in assay [4] (first compound 0.08 µM), 0.742; in assay [4] (first compound 0.253 µM), 0.674; in assay [4] (first compound 0.8 µM) it was 0.53. The relative viability amounted to 0.52 in assay [4] (first compound 2.53 µM) and 0.666 in assay [4] (first compound 8 µM).

For the origin of these results see the supplement of paper PMC10307832.
